Patent publication US20230190650A1 (The University of North Carolina at Chapel Hill, priority 2020, published 2023)
Counter-ions that a name gives are not always drawn.

Experiments:
[1] = Partitioning of small molecules between aqueous phase and oily eutectic; type: physicochemical; conditions: after 10 minutes of mixing; 0.5 g/L bupivacaine-HCl, 5 g/L chlorobutanol, 25 g/L benzyl alcohol
[2] = In vitro dissolution testing of LBB-111 (release into PBS from 3D printed socket); type: physicochemical; conditions: from LBB-111; PBS pH 7.4, 37° C.
Description: As a first step to approximate release properties of LBB-111, we performed in vitro dissolution testing under various conditions. […] Mixing was accomplished using the smaller “mini” spin paddles at 59 rpm. Dissolution media [900 mL Phosphate buffered saline (PBS), pH 7.4] was equilibrated at 37° C. overnight before the start of a run. To mimic a human molar socket, cylindrical chambers with internal dimensions approximately 1 cm tall and 1 cm in diameter, with a high infill base to give the socket weight and stability were 3D printed at the UNC BeAM […] using an Ultimaker 3. Sockets were filled to the rim with formulation using an 18 g needle, and the formulation weight (around 0.8 g for these sockets) was recorded. The flat base of the socket was placed on the bottom of each dissolution chamber and mixing initiated. […] Referring now to FIG. 6, the graph illustrates drug released into PBS medium plotted as the fraction of the total that was present in the formulation at the start (% released). […] Formulation samples were dissolved in 19-times their weight (final conc. 5% wt) 200-proof ethanol, the ethanol dissolved samples were then diluted 5-fold into distilled water, and 10 μL of this dilution was injected.

[3] = Stability of drugs in the anesthetic formulation (HPLC); type: physicochemical; conditions: eutectic emulsion formulation
Description: (§1) Identical samples were prepared with 0.5 g/L EDTA added as preservative). These aliquots were quantified by HPLC, alongside aliquots of the formulation (both with and without EDTA) treated in the same manner, which were dissolved in ethanol immediately before quantification.
(§2) The column was a YMC-Pack Pro C18 column (3 µm particle size, 120 Å pore size, 4.6 x 150 mm) and mobile phase was 30 mM potassium phosphate, 0.16% trimethylamine, adjusted to pH 4.9 with phosphoric acid, 30% Acetonitrile.
(§3) “Fridge” samples stored at 4° C., “Heat” at 40° C., “Light” on bench in clear vials. An “E” after the storage condition indicates samples with 5 g/L EDTA added as preservative.

[4] = cited from earlier work; for logD7.4: pH 7.4
[5] = Description: as §1, §2, §3
[6] = local anesthetic activity profile; cited from earlier work

SMILES | presence in the aqueous phase after mixing with the eutectic [1] | relative release rate [2] | degradation in the formulation without EDTA [3] | time to becoming undetectable in solution ([5]; saliva analogue buffer, light or heat (40° C.) conditions, without EDTA) | pKa [4] | logD7.4 [4] | degradation in solution [5] | Duration [6] | Onset [6] | Potency [6] | logP [4] | degradation in solution, Heat sample with EDTA [5]
CCCCN1CCCCC1C(=O)Nc1c(C)cccc1C (stereo not shown) [Bupivacaine] | – | slowest | – | – | – | 2.39 | – | Long | Moderate | High | 3.41 | –
CCN(CC)CC(=O)Nc1c(C)cccc1C [Lidocaine] | – | – | – | – | – | – | almost undetectable | Moderate | Fast | Medium | – | some lidocaine degradation
CCCCN1CCCCC1C(=O)Nc1c(C)cccc1C (stereo not shown) [bupivacaine-HCl, bupivacaine hydrochloride] | undetectable | – | – | – | – | – | – | – | – | – | – | –

Further lines, with some results ahead:

presence in the aqueous phase after mixing with the eutectic [1] | relative release rate [2] | degradation in the formulation without EDTA [3] | time to becoming undetectable in solution ([5]; saliva analogue buffer, light or heat (40° C.) conditions, without EDTA) | SMILES | pKa [4] | logD7.4 [4] | degradation in solution [5] | Duration [6] | Onset [6] | Potency [6] | logP [4] | degradation in solution, Heat sample with EDTA [5]
undetectable | – | – | – | OCc1ccccc1 [benzyl alcohol] | – | – | – | – | – | – | – | –
– | fastest | lack of benzocaine degradation | ≤ 10 days | CCOC(=O)c1ccc(N)cc1 [Benzocaine] | 2.8 | 1.86 | almost undetectable | Short | Fast | Low | – | –
